Reference: patent publication US12252488B2 (Nimbus Saturn, Inc., priority 2021, dated 2025)

molecular target: T1, HPK1 (Homo sapiens, UniProt Q92918); test: HPK1 biochemical enzyme assay (microfluidic mobility shift assay); conditions: 1000 uM (1 mM) ATP; Caliper mobility shift; 1.5 nM HPK1; 30 min preincubation; read-out: HPK1 1000UMATP caliper IC50
T1 construct: purchased Invitrogen
Outline: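 Microfluidic mobility-shift readout with 1.5 nM HPK1 in pH 7.4 buffer; compounds (ten-point curves, top 3 μM final) preincubated 30 min with enzyme/substrate. Reaction started with 1 mM ATP and 1 μM substrate plus 5 mM MgCl2, run 60 min at RT. IC50 values binned into activity classes.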

T1 sequence (Q92918 whole entry): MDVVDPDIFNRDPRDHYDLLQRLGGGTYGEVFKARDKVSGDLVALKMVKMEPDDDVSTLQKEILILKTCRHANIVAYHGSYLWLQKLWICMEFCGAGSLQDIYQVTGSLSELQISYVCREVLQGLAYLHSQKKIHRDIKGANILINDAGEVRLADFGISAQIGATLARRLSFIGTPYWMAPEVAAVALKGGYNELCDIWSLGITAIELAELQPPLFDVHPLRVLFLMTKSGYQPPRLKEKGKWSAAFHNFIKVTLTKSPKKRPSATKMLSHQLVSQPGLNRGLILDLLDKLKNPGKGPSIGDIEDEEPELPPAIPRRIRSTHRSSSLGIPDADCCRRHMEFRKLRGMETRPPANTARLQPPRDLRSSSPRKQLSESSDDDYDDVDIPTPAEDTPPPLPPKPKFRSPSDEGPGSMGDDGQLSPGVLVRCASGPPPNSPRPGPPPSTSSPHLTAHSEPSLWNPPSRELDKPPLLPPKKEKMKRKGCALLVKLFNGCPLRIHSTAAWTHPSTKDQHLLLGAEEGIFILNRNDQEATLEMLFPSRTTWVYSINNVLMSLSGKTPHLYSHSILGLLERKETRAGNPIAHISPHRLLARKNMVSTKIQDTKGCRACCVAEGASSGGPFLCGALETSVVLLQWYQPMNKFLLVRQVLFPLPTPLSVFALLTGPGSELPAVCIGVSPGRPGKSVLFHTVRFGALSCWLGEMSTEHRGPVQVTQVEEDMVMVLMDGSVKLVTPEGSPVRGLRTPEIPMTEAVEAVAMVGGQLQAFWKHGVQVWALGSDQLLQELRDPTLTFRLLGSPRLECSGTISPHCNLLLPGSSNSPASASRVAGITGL

How did the IC50 turn out when `CN1CCN(Cc2ccc(-c3cc(Nc4ccc(N5CCC(O)CC5)cn4)c4c(=O)[nH]ccc4n3)c(F)c2)CC1` [I-180, 2-[2-fluoro-4-[(4-methyl-piperazin-1-yl)methyl]phenyl]-4-[[5-(4-hydroxy-1-piperidyl)-2-pyridyl]amino]-6H-1,6-naphthyridin-5-one] was run?
Its IC50 is no more than 0.1 µM.

Which IC50 does the source give for `O=c1[nH]ccc2nc(-c3ccc(CN4CCOCC4)cc3F)cc(Nc3ccc(N4CCC(O)CC4)cn3)c12` [I-181, 2-[2-fluoro-4-(morpholino-methyl)phenyl]-4-[[5-(4-hydroxy-1-piperidyl)-2-pyridyl]amino]-6H-1,6-naphthyridin-5-one] here?
The IC50 was greater than 1 µM.

How did the IC50 turn out when `Cc1nc2cc(-c3cc(Nc4ccc(N5CCC(O)CC5)cn4)c4c(=O)[nH]ccc4n3)c(F)cc2o1` [I-182, 2-(6-fluoro-2-methyl-1,3-benzoxazol-5-yl)-4-[[5-(4-hydroxy-1-piperidyl)-2-pyridyl]amino]-6H-1,6-naphthyridin-5-one] was run?
Its IC50 is greater than 1 µM.

Which IC50 does the source give for `O=c1[nH]ccc2nc(-c3cccc(CN4CCCCC4)c3F)cc(Nc3ccc(N4CCC(O)CC4)cn3)c12` [I-183, 2-[2-fluoro-3-(1-piperidyl-methyl)phenyl]-4-[[5-(4-hydroxy-1-piperidyl)-2-pyridyl]amino]-6H-1,6-naphthyridin-5-one] here?
The IC50 was no more than 0.1 µM.

With `CN1CCN(c2ccc(Nc3cc(-c4ccc(NC(=O)C5CCCCC5)cc4F)nc4cc[nH]c(=O)c34)nc2)CC1` [I-184, N-[3-fluoro-4-[4-[[5-(4-methyl-piperazin-1-yl)-2-pyridyl]amino]-5-oxo-6H-1,6-naphthyridin-2-yl]phenyl] cyclohexane carboxamide] as the molecule, how does the IC50 read?
Its IC50 is greater than 1 µM.

With `COc1cccc(F)c1-c1cc(Nc2ccc(N3CCC(O)CC3)cn2)c2c(=O)[nH]ccc2n1` [I-185, 2-(2-fluoro-6-methoxy-phenyl)-4-[[5-(4-hydroxy-1-piperidyl)-2-pyridyl]amino]-6H-1,6-naphthyridin-5-one] as the molecule, how does the IC50 read?
The IC50 was 0.1 to 1 µM.

For `CC(C)Oc1cc(-c2cc(Nc3ccc(N4CCC(O)CC4)cn3)c3c(=O)[nH]ccc3n2)c(F)cc1C(=O)N1CCCCC1` [I-186, 2-[2-fluoro-5-isopropoxy-4-(piperidine-1-carbonyl)phenyl]-4-[[5-(4-hydroxy-1-piperidyl)-2-pyridyl]amino]-6H-1,6-naphthyridin-5-one], which IC50 is on record?
Its IC50 is no more than 0.1 µM.

Which IC50 does the source give for `COc1cc(-c2cc(Nc3ccc(N4CCNCC4)cn3)c3c(=O)[nH]ccc3n2)ccc1C(=O)N1CCCCC1` [I-187, 2-[3-methoxy-4-(piperidine-1-carbonyl)phenyl]-4-[(5-piperazin-1-yl-2-pyridyl)amino]-6H-1,6-naphthyridin-5-one] here?
The IC50 was 0.1 to 1 µM.

For `COCCOC1CN(c2ccc(Nc3cc(-c4cc(OC)c(C(=O)N5CCCCC5)cc4F)nc4cc[nH]c(=O)c34)nc2)C1` [I-188, 2-[2-fluoro-5-methoxy-4-(piperidine-1-carbonyl)phenyl]-4-[[5-[3-(2-methoxy-ethoxy)azetidin-1-yl]-2-pyridyl]amino]-6H-1,6-naphthyridin-5-one], which IC50 is on record?
Its IC50 is no more than 0.1 µM.

For `COCCOC1CN(c2ccc(Nc3cc(-c4ccc(NC(=O)C5CCCCC5)cc4F)nc4cc[nH]c(=O)c34)nc2)C1` [I-189, N-[3-fluoro-4-[4-[[5-[3-(2-methoxy-ethoxy)azetidin-1-yl]-2-pyridyl]amino]-5-oxo-6H-1,6-naphthyridin-2-yl]phenyl] cyclohexane carboxamide], which IC50 is on record?
Its IC50 is 0.1 to 1 µM.

Which IC50 does the source give for `COc1cc(-c2cc(Nc3ccc(N4[C@H](C)COC[C@H]4C)cn3)c3c(=O)[nH]ccc3n2)c(F)cc1C(=O)N1CCCCC1` [I-190, 4-[[5-[(3R, 5R)-3,5-dimethyl-morpholin-4-yl]-2-pyridyl]amino]-2-[2-fluoro-5-methoxy-4-(piperidine-1-carbonyl)phenyl]-6H-1,6-naphthyridin-5-one] here?
Its IC50 is 0.1 to 1 µM.

`C[C@@H]1COC[C@@H](C)N1c1ccc(Nc2cc(-c3ccc(NC(=O)C4CCCCC4)cc3F)nc3cc[nH]c(=O)c23)nc1` [I-191, N-[4-[4-[[5-[(3R,5R)-3,5-dimethyl-morpholin-4-yl]-2-pyridyl]amino]-5-oxo-6H-1,6-naphthyridin-2-yl]-3-fluoro-phenyl] cyclohexane-carboxamide] was tested. Which IC50 did it give?
Its IC50 is no more than 0.1 µM.

Which IC50 does the source give for `O=c1[nH]ccc2nc(-c3cc4c(cc3F)CCC4O)cc(Nc3ccc(N4CCC(O)CC4)cn3)c12` (stereo not drawn) [I-192, 2-(6-fluoro-3-hydroxy-indan-5-yl)-4-[[5-(4-hydroxy-1-piperidyl)-2-pyridyl]amino]-6H-1,6-naphthyridin-5-one] here?
Its IC50 is 0.1 to 1 µM.

`COc1cc(-c2cc(Nc3ccc(N4CCN(C)CC4)cn3)c3c(=O)[nH]ccc3n2)c(F)cc1C(=O)N1CCCCC1` [I-193, 2-[2-fluoro-5-methoxy-4-(piperidine-1-carbonyl)phenyl]-4-[[5-(4-methyl-piperazin-1-yl)-2-pyridyl]amino]-6H-napthyridin-5-one] was tested. Which IC50 did it give?
Its IC50 is 0.1 to 1 µM.

For `Cc1cc(-c2cc(Nc3ccc(N4CCC(O)CC4)cn3)c3c(=O)[nH]ccc3n2)c(F)cc1CN1CCCCC1` [I-194, 2-[2-fluoro-5-methyl-4-(1-piperidyl-methyl)phenyl]-4-[[5-(4-hydroxy-1-piperidyl)-2-pyridyl]amino]-6H-1,6-naphthyridin-5-one], which IC50 is on record?
The IC50 was no more than 0.1 µM.

With `COc1cc(-c2cc(Nc3ccc(N4CCC(O)CC4)cn3)c3c(=O)[nH]ccc3n2)ccc1C(=O)N1CCCCC1` [I-195, 4-[[5-(4-hydroxy-1-piperidyl)-2-pyridyl]amino]-2-[3-methoxy-4-(piperidine-1-carbonyl)phenyl]-6H-1,6-naphthyridin-5-one] as the molecule, how does the IC50 read?
Its IC50 is greater than 1 µM.

For `CCOc1cc(-c2cc(Nc3ccc(N4CCC(O)CC4)cn3)c3c(=O)[nH]ccc3n2)c(F)cc1C(=O)N1CCCCC1` [I-196, 2-[5-ethoxy-2-fluoro-4-(piperidine-1-carbonyl)phenyl]-4-[[5-(4-hydroxy-1-piperidyl)-2-pyridyl]amino]-6H-1,6-naphthyridin-5-one], which IC50 is on record?
The IC50 was 0.1 to 1 µM.

With `Cc1cc(-c2cc(Nc3ccc(N4CCNCC4)cn3)c3c(=O)[nH]ccc3n2)c(F)cc1NC(=O)C1CCCCC1` [I-197, N-[5-fluoro-2-methyl-4-[5-oxo-4-[(5-piperazin-1-yl-2-pyridyl)amino]-6H-1,6-naphthyridin-2-yl]phenyl] cyclohexane carboxamide] as the molecule, how does the IC50 read?
The IC50 was 0.1 to 1 µM.

Which IC50 does the source give for `COc1cc(-c2cc(Nc3ccc(C4CC4)cn3)c3c(=O)[nH]ccc3n2)c(F)cc1C(=O)N1CCCCC1` [I-198, 4-[(5-cyclopropyl-2-pyridyl)amino]-2-[2-fluoro-5-methoxy-4-(piperidine-1-carbonyl)phenyl]-6H-1,6-naphthyridin-5-one] here?
The IC50 was 0.1 to 1 µM.

How did the IC50 turn out when `COc1cc(-c2cc(Nc3cnn(C)c3)c3c(=O)[nH]ccc3n2)c(F)cc1C(=O)N1CCCCC1` [I-199, 2-[2-fluoro-5-methoxy-4-(piperidine-1-carbonyl)phenyl]-4-[(1-methyl-pyrazol-4-yl)amino]-6H-1,6-naphthyridin-5-one] was run?
The IC50 was 0.1 to 1 µM.

How did the IC50 turn out when `CNC1CCc2cc(F)c(-c3cc(Nc4ccc(N5CCC(O)CC5)cn4)c4c(=O)[nH]ccc4n3)cc21` (stereo not drawn) [I-200, 2-[6-fluoro-3-(methyl-amino)indan-5-yl]-4-[[5-(4-hydroxy-1-piperidyl)-2-pyridyl]amino]-6H-1,6-naphthyridin-5-one] was run?
The IC50 was no more than 0.1 µM.

How did the IC50 turn out when `O=C(Nc1ccc(-c2cc(Nc3ccc(N4CC(F)(F)C4)cn3)c3c(=O)[nH]ccc3n2)c(F)c1)C1CCCCC1` [I-201, N-[4-[4-[[5-(3,3-difluoro-azetidin-1-yl)-2-pyridyl]amino]-5-oxo-6H-1,6-naphthyridin-2-yl]-3-fluoro-phenyl] cyclohexane-carboxamide] was run?
The IC50 was no more than 0.1 µM.

How did the IC50 turn out when `COc1cc(F)c(-c2cc(Nc3ccc(N4CCC(O)CC4)cn3)c3c(=O)[nH]ccc3n2)cc1CN1CCCCC1` [I-202, 2-[2-fluoro-4-methoxy-5-(1-piperidyl-methyl)phenyl]-4-[[5-(4-hydroxy-1-piperidyl)-1-2-pyridyl]amino]-6H-1,6-naphthyridin 5-one] was run?
The IC50 was no more than 0.1 µM.

`O=c1[nH]ccc2nc(-c3ccc4c(c3F)CCC4O)cc(Nc3ccc(N4CCC(O)CC4)cn3)c12` (stereo not drawn) [I-203, 2-(4-fluoro-1-hydroxy-indan-5-yl)-4-[[5-(4-hydroxy-1-piperidyl)-2-pyridyl]amino]-6H-1,6-naphthyridin-5-one] was tested. Which IC50 did it give?
The IC50 was no more than 0.1 µM.

`COC1CCN(c2ccc(Nc3cc(-c4ccc(NC(=O)C5CCCCC5)cc4F)nc4cc[nH]c(=O)c34)nc2)CC1` [I-204, N-[3-fluoro-4-[4-[[5-(4-methoxy-1-piperidyl)-2-pyridyl]amino]-5-oxo-6H-1,6-naphthyridin-2-yl]phenyl] cyclohexane carboxamide] was tested. Which IC50 did it give?
Its IC50 is no more than 0.1 µM.

How did the IC50 turn out when `CC1(C(=O)Nc2ccc(-c3cc(Nc4ccc(N5CCC(O)CC5)cn4)c4c(=O)[nH]ccc4n3)c(F)c2)COC1` [I-205] was run?
Its IC50 is no more than 0.1 µM.

With `COc1cc(-c2cc(Nc3ccc(N4CCC(O)CC4)cn3)c3c(=O)[nH]ccc3n2)c(F)cc1C(=O)N1CCCC1` [I-206, 2-[2-fluoro-5-methoxy-4-(pyrrolidine-1-carbonyl)phenyl]-4-[[5-(4-hydroxy-1-piperidyl)-2-pyridyl]amino]-6H-naphthyridin-5-one] as the molecule, how does the IC50 read?
Its IC50 is no more than 0.1 µM.

`O=C(Nc1ccc(-c2cc(Nc3ccc(N4C[C@H]5COC[C@H]5C4)cn3)c3c(=O)[nH]ccc3n2)c(F)c1)C1CCCCC1` [I-207, N-[4-[4-[[5-[(3aR,6aS)-1,3,3a,4,6,6a-hexahydro-furo[3,4-c]pyrrol-5-yl]-2-pyridyl]amino]-5-oxo-6H-1,6-naphthyridin-2-yl]-3-fluoro-phenyl] cyclohexane-carboxamide] was tested. Which IC50 did it give?
The IC50 was no more than 0.1 µM.

How did the IC50 turn out when `COc1cc(-c2cc(Nc3ccc(N4CCNCC4)cn3)c3c(=O)[nH]ccc3n2)c(F)cc1NC(=O)C1CCCCC1` [I-208, N-[5-fluoro-2-methoxy-4-[5-oxo-4-[(5-piperazin-1-yl-2-pyridyl)amino]-6H-1,6-naphthyridin-2-yl]phenyl] cyclohexane carboxamide] was run?
Its IC50 is 0.1 to 1 µM.

For `COc1cc(-c2cc(Nc3ccc(N4CCC(OC)CC4)cn3)c3c(=O)[nH]ccc3n2)c(F)cc1C(=O)N1CCCCC1` [I-209, 2-[2-fluoro-5-methoxy-4-(piperidine-1-carbonyl)phenyl]-4-[[5-(4-methoxy-1-piperidyl)-2-pyridyl]amino]-6H-1,6-naphthyridin-5-one], which IC50 is on record?
Its IC50 is 0.1 to 1 µM.
